The values that follow come from paper PMC7663772, “Optimizing the Profile of [^99mTc]Tc–NT(7–13) Tracers in Pancreatic Cancer Models by Means of Protease Inhibitors” (International Journal of Molecular Sciences, 2020).

In one series the test system is AsPC-1 xenografts. The conditions noted are these: mouse, in vivo; cited from earlier work.
A further series concerns AsPC-1 cells. In words: NTS1R-specific cell uptake/internalization in AsPC-1 cells. It is filed as cell-based, human. The conditions noted are these: for specific cell uptake: AsPC-1 cells, 1 h incubation at 37 °C, NTS1R-specific (non-specific with 1 μM NT subtracted). How it is done:
(§1) The human pancreatic adenocarcinoma AsPC-1, PANC-1, MiaCapa-2, and Capan-1 cell lines were obtained from LGC Standards GmbH (Wesel, Germany). All culture reagents were purchased from Gibco BRL, Life Technologies (Grand Island, NY, USA) or from Biochrom KG Seromed (Berlin, Germany). Cells were grown in Roswell Park Memorial Institute-1640 Medium (RPMI-1640; AsPC-1 cells) or Dulbecco’s Modified Eagle’s Medium (DMEM; PANC-1, MiaCapa-2, and Capan-1 cells) with GlutaMAX-I, supplemented with 10% (v/v) fetal bovine serum (FBS), 100 U/mL penicillin, and 100 μg/mL streptomycin, and kept in a controlled humidified air containing 5% CO2 at 37 °C. Splitting of cells with a ratio of 1:3 to 1:5 was performed when approaching confluency, using a trypsin/EDTA (0.05%/0.02% w/v) solution.
For internalization assays, AsPC-1, PANC-1, MiaCapa-2, and Capan-1 cells were seeded in six-well plates (≈1 × 10^6 cells per well) the day before the experiment. Cells were rinsed twice with ice-cold internalization medium (IM; culture medium supplemented by 1% (v/v) FBS), and then fresh IM was added (1.2 mL) at 37 °C, followed by test radiopeptide (250 fmol total peptide in 150 μL IPBS (0.5% w/v BSA–PBS,) 100,000–200,000 cpm). Non-specific internalization was determined by a parallel triplicate series containing 1 μM NT. After incubation at 37 °C, the plates were placed on ice, the medium was collected, and the plates were washed with IPBS (1 mL). Membrane-bound fractions were collected by incubating the cells 2 × 5 min in acid-wash solution (2 × 600 µL; 50 mM glycine buffer pH 2.8, 0.1 M NaCl) at room temperature. […] Sample radioactivity was measured on the gamma counter, and the percentage of specific internalized and membrane-bound fractions were calculated with Microsoft Excel (after subtracting the non-specific from the overall internalized and membrane-bound counts). Results represent the specific mean internalized ± SD of total added radioactivity per well from three experiments performed in triplicate. […]

The next series concerns PANC-1 cells. In words: NTS1R-specific cell uptake/internalization in PANC-1 cells. It is filed as cell-based, human. How it is done:
as §1, with “Splitting of cells with a ratio of 1:3 to 1:5 was performed when approaching confluency, using a trypsin/EDTA (0.05%/0.02% w/v) solution.” left out
(§2) For internalization assays, AsPC-1, PANC-1, MiaCapa-2, and Capan-1 cells were seeded in six-well plates (≈1 × 10^6 cells per well) the day before the experiment. […] Non-specific internalization was determined by a parallel triplicate series containing 1 μM NT. […] Sample radioactivity was measured on the gamma counter, and the percentage of specific internalized and membrane-bound fractions were calculated with Microsoft Excel (after subtracting the non-specific from the overall internalized and membrane-bound counts). Results represent the specific mean internalized ± SD of total added radioactivity per well from three experiments performed in triplicate. […]

The subject of another series is MiaCapa-2 cells. The series is described as follows: NTS1R-specific cell uptake/internalization in MiaCapa-2 cells. It is filed as cell-based, human. The conditions noted are these: 1 h incubation at 37 °C. How it is done: as §1, with “Splitting of cells with a ratio of 1:3 to 1:5 was performed when approaching confluency, using a trypsin/EDTA (0.05%/0.02% w/v) solution.” left out
as §2

The next series has as its system Capan-1 cells. The series is described as follows: NTS1R-specific cell uptake/internalization in Capan-1 cells. It is filed as cell-based, human. The conditions noted are these: 1 h incubation at 37 °C. How it is done:
as §1, with “Splitting of cells with a ratio of 1:3 to 1:5 was performed when approaching confluency, using a trypsin/EDTA (0.05%/0.02% w/v) solution.” left out
as §2

The test system of a further series is WiDr cells. On the set-up: method as in PMID 32526874. Conditions: 1 h incubation ref 39; cited from earlier work.
For series [1], the system named is NTS1R. On the set-up: method as in PMID 17594090. Conditions: read-out: receptor affinity (IC50); cited from earlier work.
In series [2] the test system is NTS1R. Further details: method as in PMID 21883013. The conditions noted are these: small number of patients ref 30; cited from earlier work.
The conditions of series [3]: mouse, 2 h; cited from earlier work.
The conditions of series [4]: mouse, in vivo; cited from earlier work.

In the case of “Ac–Lys(1,4,7,10-tetraazacyclododecane–1,4,7,10-tetraacetic acid)–Pro–Me–Arg–Arg–Pro–Tyr–Tle–Leu–OH [[^68Ga]Ga–DOTA–NT–20.3]”, the kidney values entry in the series on AsPC-1 xenografts is “about the same values”.
As to “[^68Ga]Ga–NODAGA–Lys(Cy5**)–AEEAc–[Me–Arg^8,Tle^12]NT(7−13)”, the kidney values in the series with AsPC-1 xenografts was 20 % IA/g.
Take “[^99mTc]Tc–[N4–Gly^7]NT(7–13) [[^99mTc]Tc–DT1]”: the “I, internalized fraction, specific” value is 14.11±2.28 with AsPC-1 cells (AsPC-1, 1 h incubation, of total-added activity) and 7.30±2.41 with PANC-1 cells (PANC-1, 1 h incubation, of total-added activity). In addition, the specific cell uptake was 15.2% ± 2.6% with AsPC-1 cells; 8.1% ± 2.8% with PANC-1 cells (PANC-1 cells, 1 h incubation at 37 °C, NTS1R-specific); 2.7% ± 0.3% in the series with MiaCapa-2 cells; 0.4% ± 0.1% in the series with Capan-1 cells. The specific cell binding with WiDr cells is reported as 10.1 ± 2.3%.
The IC50 is the concentration that inhibits the measured activity by half. Consider “[^99mTc]Tc–[N4–βAla^7,Dab^9,Tle]NT(7–13) [[^99mTc]Tc–DT6]”, for which the IC50 with NTS1R [1] was 0.08 ± 0.02 nM. The specific cell binding with WiDr cells was 1.0 ± 0.4%. Also, the “NTS1R targeting of tumor lesions in patients” value in the series on NTS1R [2] is “poor NTS1R targeting of tumor lesions”. For the same substance, the “stability in mice plasma, intact” value in series [3] is above 90%.
As for “[^99mTc]Tc–[N4–βAla^7,Dab^9]NT(7–13) [[^99mTc]Tc–DT5]”, the specific cell uptake in the series on AsPC-1 cells was 8.4% ± 0.8%. For the same substance, in series [4], the “renal values in mice” value was “high renal values”.
